According to patent US20170260169A1, “INHIBITORS FOR STEROID RESPONSE ELEMENTS AND RNA POLYMERASE II AND RELATED METHODS” (priority 2007, published 2017):

Assays:
[1] = tested on: ARE of the PSA promoter; test: Quantitative DNase I footprint titration on pAR-PSA fragment; assay type: binding
From the text: Plasmid pAR-PSA was constructed by inserting a 70-bp sequence from the PSA promoter containing the ARE into pUC19 plasmid. […] Detailed experimental protocols are reported elsewhere (44). The proximal PSA promoter contains the ARE [NT] ID NO:15) (FIG. 8A). […] However, 1 is observed to bind the sequence [NT]≈12 bp 5' to the ARE, which is an expected binding site for this molecule.

[2] = tested on: AR occupancy at the PSA promoter and enhancer; test: Chromatin immunoprecipitation with anti-AR, PSA promoter and enhancer; assay type: cell-based
Description: LNCaP cells were plated in 15-cm diameter plates at a density of 2×10^6 cells per plate. Media, polyamide treatment, time course, and DHT stimulation were the same as described above. After the 16-h DHT treatment, cells were treated with 1% formaldehyde for 10 min. Chromatin was isolated and sheared. Antibodies to AR (AR-20, Santa Cruz Biotechnology, Santa Cruz, Calif.) were used to immunoprecipitate AR-bound DNA fragments. Crosslinks were reversed, and PCRs using primers targeted to the regions of interest were used to assess enrichment of bound fragments as compared with mock-precipitated (no antibody) controls. PCRs were monitored with SYBR Green PCR Master Mix (Applied Biosystems) on an ABI 7300 instrument. Primer sequences and a more detailed experimental protocol are available upon request.

[3] = tested on: GILZ mRNA expression in A549 cells; test: Dexamethasone-induced GILZ mRNA in A549 cells, quantitative real-time RT-PCR; assay type: cell-based
[4] = tested on: FKBP5 mRNA expression in LNCaP cells; test: DHT-induced FKBP5 mRNA in LNCaP cells; assay type: cell-based
[5] = tested on: AR occupancy at the FKBP5 intronic enhancer; test: Chromatin immunoprecipitation with anti-AR, FKBP5 fifth intron enhancer; assay type: cell-based; settings: 10 μM
[6] = tested on: PSA mRNA expression in LNCaP cells; test: DHT-induced PSA mRNA in LNCaP cells, quantitative real-time RT-PCR; assay type: cell-based
Description: LNCaP cells (ATCC) were plated in 24-well plates at a density of 40-50×10^3 cells per well (80-100×10^3 cells per ml) in RPMI medium 1640 (ATCC) supplemented with 10% FBS (Irvine Scientific, Santa Ana, Calif.). After 72 h, the medium was replaced with RPMI medium 1640 containing 10% charcoal stripped FBS with or without polyamides at the designated concentrations. Cells were grown for an additional 48 h and then treated with 1 nM DHT for 16 h. When appropriate, bicalutamide was added 2 h before DHT stimulation. Isolation of RNA and cDNA synthesis was performed as described (21). Quantitative real-time RT-PCR was performed with SYBR Green PCR Master Mix (Applied Biosystems, Foster City, Calif.) on an ABI 7300 instrument. PSA mRNA was measured relative to β-glucuronidase as an endogenous control.

[7] = tested on: binding of LNCaP nuclear extract factors to the ARE site in the PSA promoter; test: Electrophoretic mobility shift assay with DHT-stimulated LNCaP nuclear extract; assay type: biochemical; settings: same concentrations
Description: containing the PSA promoter ARE (underlined) was end-labeled with ^32P and annealed to its complement. Polyamides 1 and 2 were incubated with the duplex for 3 h in previously optimized buffer conditions (45). Nuclear extract from DHT-treated LNCaP cells (Genetex, San Antonio, Tex.) was then added for an additional 45 min. Complexes were run on a 5% polyacrylamide gel and visualized on a phosphorimager.
The effects of polyamides 1 and 2 on the binding of factors present in the nuclear extract isolated from DHT-stimulated LNCaP cells to the ARE site in the PSA promoter was measured by an electrophoretic mobility shift assay (FIG. 8D).

[8] = tested on: transcripts in DHT-stimulated LNCaP cells; test: Gene expression with Affymetrix Human Genome U133 Plus 2.0 arrays, DHT-stimulated LNCaP cells; assay type: cell-based
Description: LNCaP cells were plated in 12-well plates at a density of 80-100×10^3 cells per well. Media, polyamide treatments, and time courses were the same as described above. Bicalutamide was added 2 h before DHT stimulation. RNA was isolated as described in ref. 21. From this point, experiments were carried out at the Millard and Muriel Jacobs Gene Expression Facility at the California Institute of Technology. Labeled mRNA was hybridized to Affymetrix high-density Human Genome U133 Plus 2.0 arrays according to established protocols. Gene expression was analyzed by using Resolver (Rosetta Biosoftware, Seattle, Wash.). Data were uploaded to the Gene Expression Omnibus repository (accession no. GSE7708).
Global effects of polyamides 1 and 2 and bicalutamide on gene expression in DHT-stimulated LNCaP cells were monitored with Affymetrix (Santa Clara, Calif.) high-density Human Genome U133 Plus 2.0 arrays, which interrogate >50,000 transcripts.

[9] = cited from earlier work
[10] = Escalating single dose subcutaneous injections, male C57BL/6J mice (weight, histopathology, serum)
Description: Representative mice (n=2 per dosing group unless otherwise noted) were subjected to histopathology analysis by a veterinary pathologist. Blood from all mice was sampled and sent for analysis of serum markers of target organs. […] These mice were euthanized when significant duress was apparent.
All animal experiments were conducted under an approved protocol at the California Institute of Technology. Animals were allowed to adjust for 3 days after arrival before treatment. […] Animals were monitored daily for weight loss over 9 days and sacrificed. […] Weight was recorded on days of injection and at the experiment endpoint.
Sacrificed animals from weight loss experiments were fixed in 10% formalin and sent for histopathology analysis by IDEXX-RADIL. Histopathologic analysis was performed on the cecum, duodenum, heart, ileum, kidney, liver, lung, pancreas, spleen, and stomach. Tissue analysis was performed as a blind study to the identity of the animals.
Serum from treated animals were collected by retroorbital bleeding. Blood samples were centrifuged at 6,000 rpm for 5 min to collect the serum. Serum ALT, AST, total bilirubin, BUN, and creatinine levels were sent for analysis by IDEXX-RADIL. Serum analysis was performed as a blind study to the identity of the animals.

[11] = Liver microsomal stability, human
Description: (§2) Briefly, each polyamide was incubated with 1 mg/ml human or mouse microsomes at 37° C. The reaction was incubated in 100 mM KH2PO4, 2 mM NADPH, 3 mM MgCl2 at pH 7.4. Samples were also incubated in the absence of NADPH to detect NADPH-free degradation. After 60 min the samples were mixed with an equal volume of ice cold methanol stop solution. The mixture was allowed to sit on ice for at least 10 min and mixed with an equal volume of water. The samples were then centrifuged to remove the precipitates and the samples were analyzed by LC/MS/MS. Data represents % remaining by comparing with time zero concentration. The experiments were performed in duplicate.

[12] = previous assay, 0.3 mg/ml enzyme (34); cited from earlier work
[13] = Liver microsomal stability, mouse
Description: as §2

[14] = Multiple-dose subcutaneous injections, male C57BL/6J mice; assay type: in vivo; settings: 1 mg/kg SC every 3 days
Description: In addition to single dose injections, the effects of repeated dosing of polyamides 77-80 in mice were examined. In this experiment, 8 week-old male C57BL/6J mice (n=3 per dosing group) were treated with 1 mg/kg of polyamides 77-80 by subcutaneous injection every 3 days, for a cycle of three injections and then sacrificed two days after the final injection (FIG. 31A). As in the single dosing experiments, two mice per group were subjected to histopathology analysis and all blood samples were sent for analysis. […] These mice were promptly euthanized.
Serum from treated animals were collected by retroorbital bleeding. […] All samples were sent for analysis at IDEXX-RADIL.

[15] = tested on: DNA damage in LNCaP cells; test: Alkaline comet assay in LNCaP cells; settings: polyamide 10 μM 48 h; dox 5 μM 4 h
Description: LNCaP cells were plated at 1 million cells per 10 cm plate and allowed to adhere for 24 to 36 h. Cells were then incubated with either 10 μM 77 for 48 h or 5 μM doxorubicin for 4 h. DNA damage was assayed using the Trevigen CometAssay® system and samples were prepared from harvested cells according to the manufacture protocol. Comets were imaged on a confocal microscope (Exciter, Zeiss) at 10× magnification. Percentage of DNA in the tail was determined using Comet Assay Lite IV (Perceptive Instruments). More than one hundred comets were scored for each condition.
LNCaP cells were plated in 6 well plates at 100,000 cells per well and allowed to adhere for 36-48 h. The cells were then incubated with either 10 μM 78 for 48 h or 5 μM doxorubicin for 4 h. DNA damage was assayed using the Trevigen CometAssay system. Cells were harvested by gentle aspiration with PBS and prepared on slides according to the manufacturer's protocol. Comets slides were imaged on a confocal microscope (Exciter, Zeiss) at 10× magnification. Images were scored using Comet Assay Lite IV (Perceptive Instruments). More than 100 comets were scored for each condition. DNA damage is reported as percentage of DNA in the tail.

[16] = tested on: p53; test: p53 protein ELISA in LNCaP cells; assay type: cell-based; settings: polyamide 10 μM 72 hr; doxorubicin 1 μM 24 hr
Description: (§1) Cellular levels of RPB1 and p53 protein in LNCaP cells after treatment with 10 μM 3 for 72 h were determined by ELISA. Cells treated with DMSO vehicle and 1 μM doxorubicin for 24 h were used as control. Cellular RBP1 levels were determined by a RPB1 specific ELISA kit (Cusabio Life Sciences) according to manufacturer's instructions. Total cellular p53 protein level was determined with a pan-p53 ELISA kit (Roche) according to manufacturer's instructions. Assays were performed in biological triplicates.

[17] = tested on: RPB1; test: RPB1 protein ELISA in LNCaP cells; assay type: cell-based; settings: polyamide 10 μM 72 hr; doxorubicin 1 μM 24 hr
Description: as §1, with “Cellular levels of RPB1 and p53 protein in LNCaP cells after treatment with 10 μM 3 for 72 h were determined by ELISA.” left out

[18] = 10 μM, + DHT, relative to DHT-induced controls, p ≦ 0.01
[19] = relative to DHT-induced controls, + DHT
[20] = 1 μM, Human, 1 hr at 37° C., 1 mg/ml microsomes
[21] = 1 μM, Mouse, 1 hr at 37° C., 1 mg/ml microsomes

In the case of `CN(CCCNC(=O)c1cccc(C(=O)O)c1)CCCNC(=O)c1cc(NC(=O)c2cc(NC(=O)c3nc(NC(=O)c4cc(NC(=O)[C@H](N)CCNC(=O)c5nc(NC(=O)c6cc(NC(=O)c7cc(NC(=O)c8nccn8C)cn7C)cn6C)cn5C)cn4C)cn3C)cn2C)cn1C` [Polyamide 2], the “binding in the footprinted region” value [1] is reported as “no measurable binding”, the Ka ([1]; ARE consensus half-site 5′-AGAACA-3′) is reported as less than 1e+07 M⁻¹ and the “occupancy of AR at the PSA promoter and enhancer” value ([2]; 1 μM as printed) is reported as “minimal effect”. For the same compound, the “AR occupancy at the PSA promoter and enhancer” value ([2]; 10 μM, FIG. 9 legend) was “not”, the “effect on GILZ mRNA induction” value [3] was “more modest effect” and the “effect on FKBP5 expression” value [4] was “minimal effect”. For the same compound, the “occupancy of AR at the FKBP5 intronic enhancer” value [5] was “no measurable effect”, the “effect on DHT-induced PSA mRNA” value [6] was “more modest effect” and the “effects on cell growth” value ([6]; LNCaP, over the course of the experiment) was “no obvious detrimental effects on cell growth”. The “effect on binding to the labeled duplex” value [7] was “minimal effect”, the “Number of transcripts down-regulated (fold change ≦ −2.0)” value [8, 18] was 284 and the “Number of transcripts down-regulated (fold change ≦ −4.0)” value [8, 18] was 32. For the same compound, the “Number of transcripts up-regulated (fold change ≧ 2.0)” value [8, 18] was 95, the “Number of transcripts up-regulated (fold change ≧ 4.0)” value [8, 18] was 11 and the “number of transcripts affected by at least 2-fold” value ([8]; 10 μM, P≦0.01, vs DHT-induced controls) was 379. For the same compound, the “share of interrogated transcripts affected” value ([8]; 10 μM, at least 2-fold) was less than 1%, the “number of the 88 DHT-repressed transcripts derepressed at least 2-fold” value ([8]; P≦0.01) was 3 and the “number of the 199 DHT-induced transcripts inhibited at least 2-fold” value ([8]; P≦0.01) was 20. For the same compound, the “Fold-change of FKBP5” value [8, 19] was 1.5, the “Fold-change of KLK2” value [8, 19] was −1.1 and the “Fold-change of KLK3 (PSA)” value [8, 19] was −1.4. The “Fold-change of TMPRSS2” value [8, 19] was −1.4.

For `CC(=O)N[C@@H](CNC(=O)c1cc(NC(=O)c2cc(NC(=O)c3cc(NC(=O)c4nccn4C)cn3C)cn2C)cn1C)CC(=O)Nc1cn(C)c(C(=O)Nc2cc(C(=O)Nc3cc(C(=O)Nc4cc(C(=O)NCCCN(C)CCCNC(=O)c5cccc(C(=O)O)c5)n(C)c4)n(C)c3)n(C)c2)n1` [Polyamide 80, ImPyPyPy-3-(R)^AcHNγ-ImPyPyPy-NHMe-IPA], the “animal toxicity after single subcutaneous administration” value ([9]; female C57BL/6J mice, 77 at 2.5 and 5 mg/kg, 80 at 2.3 and […]) is given as “acute animal toxicity in addition to weight loss”, the renal clearance ([9]; mouse, in vivo) is given as “significant renal clearance was exclusive to 80” and the “tolerability, behavior and morbidity after single SC dose” value ([10]; 1, 3, 10 mg/kg) is given as “only tolerated at 1 mg/kg”. For the same compound, the kidney histopathology ([10]; single SC 1 mg/kg) was “Milder tubular regeneration and karyomegaly”, the liver histopathology ([10]; single SC 1 mg/kg) was “Mild hepatocellular necrosis and apoptosis” and the kidney histopathology ([10]; single SC 3 mg/kg) was “Moderate atypical tubular regeneration”. The liver histopathology ([10]; single SC 3 mg/kg) was “multifocal bridging hepatocellular necrosis and apoptosis”, the spleen histopathology ([10]; single SC 3 mg/kg) was “Mild lymphoid apoptosis in the white pulp of the spleen” and the kidney histopathology ([10]; single SC 10 mg/kg) was “Moderate atypical tubular regeneration”. The liver histopathology ([10]; single SC 10 mg/kg) was “multifocal bridging hepatocellular necrosis and apoptosis”, the spleen histopathology ([10]; single SC 10 mg/kg) was “Mild lymphoid apoptosis in the white pulp of the spleen” and the “serum kidney markers creatinine and BUN” value ([10]; single SC dose) was “significantly elevated creatinine and BUN at 10 mg/kg, and elevated BUN at 3 mg/kg”. For the same compound, the “serum liver markers AST, ALT, total bilirubin” value ([10]; single SC dose) was “marked and severe elevations of AST, ALT, and total bilirubin at both 3 mg/kg and 10 mg/kg”, the “Mean remaining parent NADPH-free” value [11, 20] was 3.8% and the “Mean remaining parent with NADPH” value [11, 20] was 3.0%. For the same compound, the “intact after 1 hour incubation” value ([11]; human liver microsomes, with or without NADPH) was “less than 5%”, the “stability against rat and human microsomes” value [12] was “stable” and the “Mean remaining parent NADPH-free” value [13, 21] was 4.9%. The “Mean remaining parent with NADPH” value [13, 21] was 4.0%, the “intact after 1 hour incubation” value ([13]; mouse liver microsomes, with or without NADPH) was “less than 5%” and the “liver and kidney histopathology” value [14] was “marked hepatocellular necrosis and apoptosis in the liver and hyaline droplet accumulation in the kidneys”. For the same compound, the “weight and physical morbidity” value ([14]; three injections) was “dramatic weight loss, loss of mobility, and hunched posture within six days”.

For `COc1cccc2c1C(=O)c1c(O)c3c(c(O)c1C2=O)C[C@@](O)(C(=O)CO)C[C@@H]3O[C@H]1C[C@H](N)[C@H](O)[C@H](C)O1` [doxorubicin, reference compound], the “DNA damage by comet assay” value [15] was “significantly increases comet-tail percent of DNA”, the “cellular level of p53 protein” value [16] was “increases” and the RPB1 protein [17] was “decreases”.
